# Data: article PMC7904743, “WIDOCK: a reactive docking protocol for virtual screening of covalent inhibitors” (Journal of Computer-Aided Molecular Design, 2021)
# “Also recorded” adds a separate entry of the source.
# What was measured:
# [1] = system: KRAS^G12C; set-up: method as in PMID 28621541; conditions: > 50% labeling at 100 μM considered active; cited from earlier work
# [2] = molecular target: T1, MurA (Escherichia coli, UniProt P0A749); conditions: cited from earlier work; for MurA RA (%): residual activity at 100 μM, single point
# [3] = molecular target: T2, CatB (Homo sapiens, UniProt P07858); set-up: method as in PMID 30321804; conditions: cited from earlier work; for CatB RA (%): residual activity at 100 μM, single point
# [4] = molecular target: T1, MurA; test: biochemical; conditions: read-out: RA
# Method: (§1) These fragments were measured in single point enzyme activity assays at 100 μM concentration against MurA and CatB.
# [5] = molecular target: T3, Recombinant human microsomal MAO-A (Homo sapiens, UniProt P21397); test: MAO-A activity assay (fluorimetric, Amplex Red, p-tyramine); assay type: biochemical; conditions: MAO-A residual activity; active if lower than 60%
# T3 construct: purchased Sigma Aldrich; host or cells: baculovirus infected insect cells (BTI-TN-5B1-4)
# T3 sequence (P21397 1-527): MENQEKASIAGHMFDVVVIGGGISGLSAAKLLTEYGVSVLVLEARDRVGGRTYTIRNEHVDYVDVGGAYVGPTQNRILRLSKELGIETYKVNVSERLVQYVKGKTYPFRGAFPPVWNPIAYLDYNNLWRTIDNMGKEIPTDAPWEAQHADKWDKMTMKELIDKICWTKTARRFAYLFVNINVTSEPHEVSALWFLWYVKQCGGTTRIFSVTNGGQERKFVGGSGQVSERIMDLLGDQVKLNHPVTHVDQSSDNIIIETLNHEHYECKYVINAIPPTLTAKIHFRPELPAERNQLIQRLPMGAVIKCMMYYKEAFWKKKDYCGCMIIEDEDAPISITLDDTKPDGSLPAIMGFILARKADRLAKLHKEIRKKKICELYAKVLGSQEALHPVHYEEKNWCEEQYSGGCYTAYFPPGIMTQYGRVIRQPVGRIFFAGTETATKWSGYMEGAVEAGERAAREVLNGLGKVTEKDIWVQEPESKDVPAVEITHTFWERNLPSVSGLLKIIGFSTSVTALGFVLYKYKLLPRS
# Method: The effects of the test compounds on MAO-A were investigated using a fluorimetric assay, following a previously described methodology. The inhibitory activity of the compounds was evaluated by their effects on the production of hydrogen peroxide (H2O2) from p-tyramine. The production of H2O2 was detected using Amplex Red reagent in the presence of horseradish peroxidase, where a highly sensitive fluorescent product, resorufin, is produced at stoichiometric amounts. Recombinant human microsomal MAO-A enzyme expressed in baculovirus infected insect cells (BTI-TN-5B1-4), horse-radish peroxidase (type II, lyophilized powder), and p-tyramine hydrochloride were obtained from Sigma Aldrich. 10-Acetyl-3,7-dihydroxyphenoxazine (Amplex Red reagent) was synthesized as described in the literature.
# Briefly, 100 µL 50 mM sodium phosphate buffer (pH 7.4, 0.05% Triton X-114) containing the compounds and MAO-A were incubated for 30 min at 37 °C in a flat-bottomed black 96-well microplate, and placed in a dark microplate reader chamber. After the pre-incubation, the reaction was started by adding the final concentrations of 200 µM Amplex Red reagent, 2 U/mL horseradish peroxidase, and 1 mM p-tyramine (final volume, 200 µL). The production of resorufin was quantified based on the fluorescence generated (λex = 530 nm, λem = 590 nm) at 37 °C over a period of 30 min, during which time the fluorescence increased linearly. For control experiments, DMSO was used instead of the appropriate dilutions of the compounds in DMSO. To determine the blank value (b), phosphate-buffered solution replaced the enzyme solution. The initial velocities were calculated from the trends obtained, with each measurement carried out in duplicate. The specific fluorescence emission to obtain the final result was calculated after subtraction of the blank activity (b).
# [6] = Kinetic measurement of adduct formation with L-glutathione (GSH) by HPLC–MS; assay type: physicochemical; set-up: unit not given here
# Method: Electrophilic fragments tested against MurA, CatB and MAO-A (25–53, structures shown in Supporting Figure S2 and SMILES provided in Supporting Table S1) represent eight different warhead chemotypes reacting via two reaction mechanisms: Michael-type nucleophilic addition and nucleophilic substitution. The intrinsic thiol reactivities (see Table 1) were determined by kinetic measurement of adduct formation with L-glutathione (GSH), a widely used cysteine surrogate, by an HPLC–MS methodology, as described in the referred study.
# [7] = half-life of adduct formation with L-glutathione; cited from earlier work
# [8] = molecular target: T2, CatB; test: CatB single point enzyme activity assay (residual activity)
# Method: as §1
# [9] = molecular target: T1, MurA; conditions: MurA residual activity; active if lower than 60%
# Method: as §1
# [10] = molecular target: T4, human MAO-A (Homo sapiens, UniProt P21397); test: Labelling of human MAO-A, tryptic digestion and LC–MS/MS; assay type: binding; conditions: 24 h at 4 °C, tryptic digestion
# T4 sequence (P21397 1-527): T3 sequence (P21397 1-527)
# [11] = < 60% residual activity at 100 μM considered active
# T1 sequence (P0A749 whole entry): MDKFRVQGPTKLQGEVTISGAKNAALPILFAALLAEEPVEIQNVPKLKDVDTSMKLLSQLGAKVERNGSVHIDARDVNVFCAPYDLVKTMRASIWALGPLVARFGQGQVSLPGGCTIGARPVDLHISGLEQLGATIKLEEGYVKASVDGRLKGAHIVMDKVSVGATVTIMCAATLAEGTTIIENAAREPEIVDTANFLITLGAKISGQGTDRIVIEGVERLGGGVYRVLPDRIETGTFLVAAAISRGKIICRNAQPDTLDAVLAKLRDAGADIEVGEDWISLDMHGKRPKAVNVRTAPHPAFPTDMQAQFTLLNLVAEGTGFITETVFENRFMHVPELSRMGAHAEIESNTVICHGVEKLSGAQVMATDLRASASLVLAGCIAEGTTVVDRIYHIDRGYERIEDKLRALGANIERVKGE
SMILES,experimental activity class against KRAS^G12C [1],MurA RA (%) [2],CatB RA (%) [3],RA [5],"Reactivity, Experimental ln(k) vs GSH [6]",GSH half-life [7],also measured
"Cc1ccc2[nH]ncc2c1-c1c(Cl)cc2c(N3CCN(C(=O)n4ccnc4)CC3)ncnc2c1F [Compound 14, c1n[nH]c(c12)ccc(C)c2-c(c(Cl)c3)c(F)c(c34)ncnc4N5CCN(CC5)C(=O)n6ccnc6]",experimental actives,,,,,,
"Cc1ccc2[nH]ncc2c1-c1c(Cl)cc2c(N3CCC(NC(=O)CCl)CC3)ncnc2c1F [Compound 17, c1n[nH]c(c12)ccc(C)c2-c(c(Cl)c3)c(F)c(c34)ncnc4N5CCC(CC5)NC(=O)CCl]",experimental actives,,,,,,
"O=C(CBr)c1ccc(-c2ccccc2)cc1 [Compound 44, O=C(CBr)c1ccc(-c2ccccc2)cc1]",,0%,0%,14%,1.936,< 0.1 h,"experimental activity class against CatB [3, 11]: experimental actives; remaining activity at 100 µM [4]: 0.1%; remaining activity at 100 µM ([8]; read-out: RA): 0.1%"
"C/C=C/C#N [Compound 28, C/C=C/C#N]",,101%,87%,81%,-4.085,41.2 h,"RA [9]: 101%; RA ([8]; CatB residual activity, active if lower than 60%): 87%"
"C=CC(=O)Nc1cc(C(F)(F)F)cc(C(F)(F)F)c1 [Compound 32, C=CC(=O)Nc1cc(C(F)(F)F)cc(C(F)(F)F)c1]",,,,,,,"experimental activity class against MurA [2, 11]: experimental MurA actives; covalent labelling of MAO-A (MS/MS) [10]: double modified; also recorded: forms a covalent bond with Cys323"
